Test results published in ChEMBL document CHEMBL4406913, “INCB050465 (Parsaclisib), a Novel Next-Generation Inhibitor of Phosphoinositide 3-Kinase Delta (PI3Kδ)” (ACS Med Chem Lett, 2019).
pIC50: −log10 of the molar value. Activity calls are given as the source filed them. The calls are words filed in the database; no cut-off is given here.

Experiments:
[1] = Fractional unbound in human plasma; type: ADME, cell-free
Pfeiffer [2] = test: Cytotoxicity against human Pfeiffer cells assessed as reduction in protein binding adjusted cell viability incubated for 4 days by [3H]-thymidine incorporation based liquid scintillation counter method; type: functional
Pfeiffer [3] = test: Cytotoxicity against human Pfeiffer cells assessed as reduction in cell viability incubated for 4 days by [3H]-thymidine incorporation based liquid scintillation counter method; type: functional
SU-DHL-6 = test: Cytotoxicity against human SUDHL6 cells assessed as reduction in cell viability incubated for 4 days by celltiter glo luminescent assay; type: functional, cell-based; details: SU-DHL-6, 96 h
[4] = AUC in rat at 5 mg/kg, po measured for 24 hrs by LC/MS/MS analysis; type: ADME, organism-based; details: in vivo
[5] = Toxicity in Beagle dog; parameters: species or system Canis lupus familiaris; details: in vivo
[6] = Toxicity in dog assessed as testicular lesions observed on day 28; parameters: species or system Canis lupus familiaris; details: in vivo
[7] = AUC in cynomolgus monkey at 1 mg/kg, po measured for 24 hrs by LC/MS/MS analysis; type: ADME, organism-based, Macaca fascicularis; details: in vivo
[8] = molecular target: T1, Phosphatidylinositol 4,5-bisphosphate 3-kinase catalytic subunit delta isoform (Homo sapiens, UniProt O00329)
T1 sequence (O00329 whole entry): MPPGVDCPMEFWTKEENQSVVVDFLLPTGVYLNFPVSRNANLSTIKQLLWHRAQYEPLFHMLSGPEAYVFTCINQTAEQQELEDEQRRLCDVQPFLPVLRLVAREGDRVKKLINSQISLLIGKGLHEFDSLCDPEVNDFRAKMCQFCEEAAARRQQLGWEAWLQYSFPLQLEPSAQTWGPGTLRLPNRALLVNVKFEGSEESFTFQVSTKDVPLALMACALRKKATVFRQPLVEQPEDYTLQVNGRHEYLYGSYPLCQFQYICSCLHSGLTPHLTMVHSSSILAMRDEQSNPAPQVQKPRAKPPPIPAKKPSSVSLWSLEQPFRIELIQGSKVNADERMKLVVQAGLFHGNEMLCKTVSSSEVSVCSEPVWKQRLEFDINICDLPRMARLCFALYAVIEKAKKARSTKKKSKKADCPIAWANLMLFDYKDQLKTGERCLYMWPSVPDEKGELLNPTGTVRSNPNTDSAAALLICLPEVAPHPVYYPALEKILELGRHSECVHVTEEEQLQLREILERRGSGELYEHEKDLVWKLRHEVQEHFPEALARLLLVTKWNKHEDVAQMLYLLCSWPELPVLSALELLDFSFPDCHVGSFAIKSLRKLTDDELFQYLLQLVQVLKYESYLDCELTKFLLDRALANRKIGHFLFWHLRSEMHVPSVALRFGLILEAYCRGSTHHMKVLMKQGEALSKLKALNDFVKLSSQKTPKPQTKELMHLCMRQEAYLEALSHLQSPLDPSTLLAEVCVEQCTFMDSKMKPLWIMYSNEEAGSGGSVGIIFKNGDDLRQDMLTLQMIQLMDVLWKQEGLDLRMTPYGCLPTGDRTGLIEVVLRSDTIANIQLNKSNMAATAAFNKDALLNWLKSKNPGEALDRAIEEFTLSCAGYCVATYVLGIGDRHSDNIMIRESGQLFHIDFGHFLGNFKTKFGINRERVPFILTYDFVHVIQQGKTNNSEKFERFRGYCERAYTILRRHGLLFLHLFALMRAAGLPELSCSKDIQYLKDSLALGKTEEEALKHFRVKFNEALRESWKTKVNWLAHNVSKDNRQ
Description: (§1) Inhibition of PI3Kdelta (unknown origin) using D-myophosphatidylinositol 4,5-bisphosphate as substrate incubated for 120 mins by [gamma-33P]ATP based SPA assay

[9] = molecular target: Voltage-gated inwardly rectifying potassium channel KCNH2 (Homo sapiens, UniProt Q12809); test: Inhibition of human ERG channel at 30 uM incubated for 24 hrs in presence of [3H] Dofetilide by filter binding assay based scintillation counting analysis
HEK293 = test: Cytotoxicity against human HEK293 cells assessed as reduction in cell viability at 20 uM incubated for 72 hrs by celltiter glo luminescent assay; type: cell-based; details: hek293, 72 h
[10] = AUC in rat at 4 mg/kg, po measured for 24 hrs by LC/MS/MS analysis; type: ADME, organism-based; details: in vivo
[11] = Permeability across apical to basolateral side in human Caco2 cells at 50 uM incubated for 120 mins by LC/MS analysis; type: ADME, cell-based; details: Caco-2, read-out: permeability
[12] = Half life in cynomolgus monkey at 2 mg/kg, po measured for 24 hrs by LC/MS/MS analysis; type: ADME, organism-based, Macaca fascicularis; details: in vivo
[13] = AUC in cynomolgus monkey at 2 mg/kg, po measured for 24 hrs by LC/MS/MS analysis; type: ADME, organism-based, Macaca fascicularis; details: in vivo
[14] = molecular target: T2, Phosphatidylinositol 4,5-bisphosphate 3-kinase catalytic subunit delta isoform (Homo sapiens) (UniProt O00329)
T2 sequence (whole entry): T1 sequence (O00329 whole entry)
Description: as §1

[15] = Intrinsic clearance in human liver microsomes at 1 uM measured upto 30 mins by LC/MS analysis; type: ADME, Microsome; details: read-out: CLH (converted)
[16] = AUC in cynomolgus monkey at 10 mg/kg, po measured for 24 hrs by LC/MS/MS analysis; type: ADME, organism-based, Macaca fascicularis; details: in vivo
[17] = Half life in cynomolgus monkey at 10 mg/kg, po measured for 24 hrs by LC/MS/MS analysis; type: ADME, organism-based, Macaca fascicularis; details: in vivo

Sequence of Voltage-gated inwardly rectifying potassium channel KCNH2 (Q12809 whole entry): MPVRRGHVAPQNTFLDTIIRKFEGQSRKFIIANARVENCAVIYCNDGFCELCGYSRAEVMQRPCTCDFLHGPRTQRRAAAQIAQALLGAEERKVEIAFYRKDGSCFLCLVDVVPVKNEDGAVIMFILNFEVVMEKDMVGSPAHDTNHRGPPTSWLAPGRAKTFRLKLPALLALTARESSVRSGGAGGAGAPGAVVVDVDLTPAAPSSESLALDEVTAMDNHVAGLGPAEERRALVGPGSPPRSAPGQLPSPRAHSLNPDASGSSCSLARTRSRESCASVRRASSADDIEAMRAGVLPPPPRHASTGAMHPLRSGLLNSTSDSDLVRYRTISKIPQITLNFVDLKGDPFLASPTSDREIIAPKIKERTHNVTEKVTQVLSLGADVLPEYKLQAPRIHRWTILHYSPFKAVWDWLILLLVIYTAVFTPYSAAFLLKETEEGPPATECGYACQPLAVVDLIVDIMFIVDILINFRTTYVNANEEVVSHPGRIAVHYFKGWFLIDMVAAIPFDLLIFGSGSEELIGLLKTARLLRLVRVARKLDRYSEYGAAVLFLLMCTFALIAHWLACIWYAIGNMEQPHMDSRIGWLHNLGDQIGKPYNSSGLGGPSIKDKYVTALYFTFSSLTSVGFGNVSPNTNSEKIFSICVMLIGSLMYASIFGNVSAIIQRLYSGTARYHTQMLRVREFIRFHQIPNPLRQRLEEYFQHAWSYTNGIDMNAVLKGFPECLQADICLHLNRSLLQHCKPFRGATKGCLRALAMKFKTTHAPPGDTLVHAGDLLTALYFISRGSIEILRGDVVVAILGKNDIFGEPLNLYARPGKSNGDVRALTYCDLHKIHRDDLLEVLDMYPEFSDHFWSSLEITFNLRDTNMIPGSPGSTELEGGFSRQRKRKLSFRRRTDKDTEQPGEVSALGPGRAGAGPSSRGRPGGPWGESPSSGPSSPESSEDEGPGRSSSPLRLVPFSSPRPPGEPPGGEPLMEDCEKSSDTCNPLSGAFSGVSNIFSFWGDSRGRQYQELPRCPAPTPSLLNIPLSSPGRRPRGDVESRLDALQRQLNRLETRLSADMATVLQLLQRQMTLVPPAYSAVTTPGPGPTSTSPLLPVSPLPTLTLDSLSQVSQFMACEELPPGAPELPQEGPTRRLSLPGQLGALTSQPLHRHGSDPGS

| fraction unbound [1] | pIC50 [8] | Structure (SMILES) | pIC50 (Pfeiffer [2]) | pIC50 (Pfeiffer [3]) | pIC50 (SU-DHL-6) | also measured |
| --- | --- | --- | --- | --- | --- | --- |
| 0.059 |  | C[C@H](Nc1ncnc2[nH]cnc12)c1cc(Cl)c2ccnnc2c1-c1cccc(F)c1 | 6.57 | 7.59 | 7.14 | AUC at 24 h [4]: 13 µM·h; Activity [5]: Toxic |
| 0.42 | 8.72 | COc1c([C@H](C)n2nc(C)c3c(N)ncnc32)cc(Cl)c(C#N)c1C1CN(C[C@H](C)O)C1 | 8.44 | 8.82 | 8.62 | Activity [6]: Toxic; AUC at 24 h [7]: 4.1 µM·h; inhibition (INH) [9]: Active; AUC at 24 h [4]: 6.8 µM·h |
| 0.14 | 9.00 | COc1c([C@H](C)Nc2ncnc(N)c2C#N)cc(Cl)c(C)c1-c1cncc(S(C)(=O)=O)c1 | 7.77 | 8.47 | 8.51 | Activity (HEK293): Toxic; AUC at 24 h [10]: 10 µM·h; inhibition (INH) [9]: Active; Papp A→B at 2 h, 50 µM [11]: 7.9 ×10⁻⁶ cm/s |
| 0.092 | 6.92 | COc1c(C(C)n2ncc3c(N)ncnc32)cc(Cl)c(C)c1-c1ccnc(C(=O)N(C)C)c1 (racemic) | 5.35 | 6.21 | 6.08 |  |
| 0.22 | 8.74 | COc1c([C@H](C)Nc2ncnc(N)c2C#N)cc(Cl)c(C)c1-c1ccc(C(=O)N(C)C)cn1 | 7.21 | 7.77 | 7.68 | Activity (HEK293): Non-Toxic; AUC at 24 h [10]: 7.7 µM·h; inhibition (INH) [9]: Not Active; half-life [12]: 12 min; AUC at 24 h [13]: 0.2 µM·h |
| 0.014 | 8.08 | C[C@H](Nc1ncnc2[nH]cnc12)c1cc(Cl)c2cccnc2c1-c1cccc(F)c1 | 6.00 | 7.30 | 6.85 |  |
| 0.23 | > 9.00 | CCOc1c([C@H](C)n2nc(C)c3c(N)ncnc32)cc(Cl)c(C#N)c1C1CNC(=O)C1 (stereo partly drawn) | 8.39 | 8.77 | 9.33 | Papp A→B at 2 h, 50 µM [11]: 0.3 ×10⁻⁶ cm/s; inhibition [14]: inactive; CLint scaled at 1 µM [15]: 11.7 mL/min/kg |
| 0.089 | 9.03 | COc1c([C@H](C)n2nc(C)c3c(N)ncnc32)cc(Cl)c(C)c1-c1ccnc(C(=O)N(C)C)c1 | 7.21 | 8.07 | 8.13 |  |
| 0.12 | 8.77 | COc1c([C@H](C)Nc2ncnc3[nH]cnc23)cc(Cl)c(C)c1-c1cncc(S(C)(=O)=O)c1 | 7.40 | 8.02 | 7.85 | Papp A→B at 2 h, 50 µM [11]: 0.5 ×10⁻⁶ cm/s; AUC at 24 h [4]: 3 µM·h |
| 0.17 |  | Cc1csc2nc([C@H](C)Nc3ncnc4[nH]cnc34)c(-c3cccc(F)c3)c(=O)n12 [DEZAPELISIB] | 7.18 | 7.85 | 7.74 | AUC at 24 h [16]: 4.9 µM·h; half-life [17]: 78 min; AUC at 24 h [4]: 4.4 µM·h |
|  | 8.28 | Cc1c(Cl)cc(C(C)Nc2ncnc3[nH]cnc23)c(-c2cccc(F)c2)c1-c1cnn(C)c1 (racemic) |  | 8.06 | 7.22 |  |
| 0.065 | 8.85 | CCOc1c([C@H](C)n2nc(C)c3c(N)ncnc32)cc(Cl)c(C)c1C1CNC(=O)C1 (stereo partly drawn) | 7.33 | 8.32 | 8.68 | Papp A→B at 2 h, 50 µM [11]: 1.9 ×10⁻⁶ cm/s; inhibition [14]: inactive; CLint scaled at 1 µM [15]: 11.7 mL/min/kg |
| 0.19 | 7.96 | COc1c(C(C)n2nc(C)c3c(N)ncnc32)cc(Cl)c(C)c1C1CCN(C)CC1 (racemic) | 7.28 | 7.96 | 7.36 |  |
| 0.1 | 6.37 | CC(Nc1ncnc2[nH]cnc12)c1ccc2cccnc2c1-c1cccc(F)c1 (racemic) | 5.49 | 6.31 | 5.74 |  |
| 0.013 |  | COc1c([C@H](C)Nc2ncnc3[nH]cnc23)cc(Cl)c(C)c1-c1ccc(S(C)(=O)=O)cc1 | 5.51 | 6.89 | 6.77 |  |
| 0.1 | 8.62 | COc1c([C@H](C)n2nc(C)c3c(N)ncnc32)cc(Cl)c(C)c1C1CNC(=O)C1 (stereo partly drawn) | 6.32 | 7.29 | 7.89 | inhibition (INH) [9]: Not Active; Papp A→B at 2 h, 50 µM [11]: 2.8 ×10⁻⁶ cm/s; inhibition [14]: inactive; CLint scaled at 1 µM [15]: 11.7 mL/min/kg |
| 0.029 | 8.55 | COc1c([C@H](C)Nc2ncnc3[nH]cnc23)cc(Cl)c(C)c1-c1cnn(C)c1 | 6.02 | 6.92 | 7.00 |  |
| 0.0064 |  | Cc1c(Cl)cc(C(C)Nc2ncnc3[nH]cnc23)c(-c2cccc(F)c2)c1C#N (racemic) |  | 6.18 | 5.89 |  |
